Tests used:
[1] = test system: Human dermal fibroblast (HDF) cells; assay: In vitro cytotoxicity of adhesive-conditioned media (MTT assay); type: cell-based; details: ACM collected at 2 days; HDF cultured 2 days; FIG. 9
Experimental: 2 μl of various CA formulations were applied on thin collagen films in 12 well plates and allowed to polymerize completely overnight at room temperature. One ml of […] (DMEM) including 10% Serum and 1% Penicillin/Streptomycin was added into each well and incubated at 37° C. in a humidified CO2 incubator to simulate adhesive degradation. Media samples were collected at 2, 7, and 14 days and these adhesive-conditioned media (ACM) were stored at −20° C. until use. Human dermal fibroblast (HDF) cells were seeded in new 12-well culture plates at a density of 8×10^4 cells/well and cultured for 24 hours to allow cell attachment. The media was replaced with the stored ACM and cultured for 2 days at 37° C. to evaluate the in vitro cytotoxicity of the various CA derivatives. Cell cytotoxicity by the degraded CA adhesives in ACM was evaluated by MTT assay. The principle of this assay is the addition of a dye which is degraded by enzymes present in living cells, resulting in the formation of a colored product. The product concentration, which is generally directly proportional to the number of viable cells, is assayed by spectrophotometry.

[2] = test system: hind limb muscles of adult Sprague-Dawley rats; assay: In vivo biocompatibility and degradation, macroscopic and IHC, incision closure
From the text: Small surgical incisions (0.2 cm in depth, 1 cm in length) were made in both hind limb muscles of adult Sprague-Dawley rats (n=4). One incision was closed by 1 drop of various cyanoacrylate formulations dispensed through a surgical syringe needle (25 G) and the other was closed by absorbable suture (VICRYL, Ethicon) with and without injection of equivalent volumes of PEG included in cyanoacrylate formulations as controls. In order to ensure proper identification of the injury sites, a single non-absorb-able suture was placed adjacent to each repaired incision site.
At 7 days, 4 weeks, and 12 weeks post-surgery, tissue explants containing the repaired incision sites and surrounding muscle tissue were retrieved. The explants were photographed to document the macroscopic tissue response to the various cyanoacrylate formulations and suture controls (FIGS. 3A-3H (7 days), 4A-4H (4 weeks), and 5A-5H (12 weeks)). Identification of specific cells types associated with wound healing and inflammation was performed by histological sectioning and immunohistochemical (IHC) staining. Tissue explants were embedded in Optimal cutting temperature (OCT) compound and sectioned perpendicular to the surface of the repaired muscle tissue. Sections ([…] thick) were transferred to glass microscope slides, fixed with methanol, permeabilized with 0.025% Triton in PBS solution, and stained with primary antibodies directed against vimentin (fibroblasts) and rat macrophages, and Alexa-594 conjugated secondary antibodies. DAPI mounting media was used to counterstain all cellular nuclei. Samples were imaged by fluorescence microscopy (FIGS. 6A-6P, 7A-7P, 8A-8P). Specific cell types are identified in red, sutures and various cyanoacrylate adhesives are shown in green, and cellular nuclei are shown in blue. […]

Escherichia coli = assay: Antibacterial activity by agar diffusion method; type: cell-based; parameters: key: c: Inhibition of growth not observed; details: 10 mg sample
Experimental: Antibacterial activity of polymyxin B-loaded PBCA nanoparticles was measured indirectly by the agar diffusion method. 30 ml of nutrient agar was added into each of four culture plates (90 mm diameter, 15 mm high). After solidifying, a cylindrical hole (13 mm in diameter) was made in the center of the plate and the contents were removed. 10 mg of polymyxin B, PBCA nanoparticles, and two polymyxin B-loaded PBCA nanoparticles (Poly BIPBCA-1 and 2) were added into a hole of each plate, respectively and a few drops of molten agar were added to fix the samples. The plate were inoculated with Escherichia coli and incubated at 37° C. for 24 hours and the zone of inhibition was determined (FIGS. 13A-13D).
To evaluate the duration of antibacterial activity of each sample, the content of each hole was removed after 24 hours of incubation and transferred to a hole of a freshly prepared plate, incubated again for 24 hours and the zone of inhibition measured. This procedure was continuously repeated until the inhibition of growth was no longer observed.

Human dermal fibroblasts = assay: Cell adhesion to polymerized cyanoacrylates (live/dead staining); type: cell-based; details: 48 hours culture; FIG. 10
Experimental: 2 μl aliquots of various cyanoacrylate formulations with and without PEG were applied to thin collagen films in 24 well plates and allowed to cure overnight at room temperature. Human dermal fibroblasts were seeded on the collagen film/polymerized adhesive surfaces at 8×10^4 cells/well and cultured for 48 hours. The cells were stained with fluorescein diacetate and propidium iodide to visualize live (green) and dead (red) cells respectively. FIGS. 10A (OCA+MCA), 10B (OCA+MCA/PEG), 10E (MCA), and 10F (MCA/PEG) are phase contrast images (black and white) showing the interface between the cyanoacrylate adhesives and the surrounding collagen films and corresponding fluorescent images FIGS. 10C (OCA+MCA), 10D (OCA+MCA/PEG), 10G (MCA), and 10H (MCA/PEG) showing the location of adherent cells.

[3] = In vitro accelerated degradation study of cured adhesive films; type: physicochemical; details: thin films in 0.05N NaOH, 37° C., 3, 7, 14 and 21 days; FIG. 1
Experimental: In vitro accelerated degradation studies have been performed to evaluate the degradation rate of various cyanoacrylate adhesives formulated with PEG and without PEG. 20 μl of cyanoacrylate (CA) derivatives and CA derivatives/PEG (MW=600) formulations were spread as a thin layer on the glass microscope slides and allowed to cure overnight at room temperature. […] The films were collected at 3, 7, 14, and 21 days and washed with distilled water two times. The washed films were freeze-dried and weighed (W1) (n=3). […] 2. Tissue Bond Strength Study

[4] = 4 weeks post-surgery, one value per rat
[5] = 7 days post-surgery, one value per rat
[6] = 7 days post-surgery, one value per rat (Rat No. 1-4), star grades not defined
[7] = Table IV, 4 weeks post-surgery (12 weeks), one value per rat

Row | Compound | cytotoxicity of adhesive-conditioned media (% cell viability) [1] | Vessel formation [2, 4] | macroscopic inflammation and swelling of tissue explants ([2]; 7 days post-surgery) | Vessel formation [2, 5] | Degree of inflammation [2, 6] | Degree of inflammation [2, 7] | Vessel formation [2, 7] | Inhibition zone: Diameter (mm) (Escherichia coli; day 1, includes original 13 mm sample size) | Inhibition zone: Diameter (mm) (Escherichia coli; day 2 (sample moved to fresh plate every 24 hours), includes 13 mm sample size) | Inhibition zone: Diameter (mm) (Escherichia coli; day 3, includes 13 mm sample size) | Inhibition zone: Diameter (mm) (Escherichia coli; day 4, includes 13 mm sample size) | Inhibition zone: Diameter (mm) (Escherichia coli; day 5, includes 13 mm sample size) | Inhibition zone: Diameter (mm) (Escherichia coli; day 6) | fibroblast adhesion to polymerized adhesive surface (Human dermal fibroblasts) | % degradation in vitro [3] | Degree of inflammation [2, 4] | No. of macrophages ([2]; Table IV, 4 weeks post-surgery (12 weeks), one value per rat, IHC)
1 | C=C(C#N)C(=O)OCCCCCCCC [OCA, octylcyanoacrylate] | not cytotoxic except for the ACM from OCA | no | mild inflammation and swelling | no | no | no | no |  |  |  |  |  |  |  |  |  | 
2 | Polymyxin B |  |  |  |  |  |  |  | 36 | 38.3 | 28 | 25.1 | 22 | c |  |  |  | 
3 | methoxyisopropylcyanoacrylate [MCA] |  | no |  | no | no | no | no |  |  |  |  |  |  | readily adhered in large numbers | significantly increased degradation | no | 0
